# Results taken from US11214803B2, “Modulators of YAP1 expression” (Ionis Pharmaceuticals, Inc., priority 2019, dated 2022).
# Strand notation (5' to 3'): a small letter for the sugar, then the base; units joined by * are phosphorothioate-linked, units joined directly phosphodiester-linked; [ ] holds rarer units or linkages, { } end groups; capitals alone tell only the bases. k = constrained ethyl (cEt); [5mC] = 5-methylcytosine; d = 2'-deoxy (DNA)
# Key:
# [1] = tested on: Yap1 mRNA; assay: Dose-dependent inhibition of human Yap1 in A-431 cells (Example 8, 10,000 cells per well, RTS4814); assay type: cell-based; conditions: free uptake, approximately 48 hours, RTS4814; for Yap1 mRNA, % UTC: A-431 cells, 10,000 cells per well; for IC50: A-431 cells, linear regression on log/linear plot
# How it was run: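 Yap1 mRNA, normalized to RIBOGREEN total RNA and expressed as % untreated control, was read with RTS4814 about 48 h after free-uptake oligonucleotide treatment of A-431 cells at 10,000 cells/well. IC50 derived by linear regression of log/linear data.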
# [2] = tested on: Yap1 mRNA; assay: Antisense inhibition of human Yap1 in A-431 cells by cEt gapmers, single dose (Example 2, RTS4814); assay type: cell-based; conditions: 3-10-3 cEt gapmers targeting SEQ ID NO.: 1, and 2
# How it was run: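 Read-out is Yap1 mRNA as percent of untreated cells, by real-time RT-PCR (probe set RTS4814) normalized to total RNA via RIBOGREEN. Cells were A-431 dosed with 2,000 nM gapmer without transfection for approximately 48 hours.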
# [3] = Table 33, Yap1 mRNA, percent of untreated control
# [4] = Yap1 mRNA as percent of untreated control, A-431 cells, Table 31
# [5] = Yap1 mRNA as percent of untreated control, A-431 cells, Table 30
# [6] = Table 32, Yap1 mRNA, percent of untreated control
Substance,"Yap1 mRNA, % UTC ([1]; 31.3 nM)","Yap1 mRNA, % UTC ([1]; 125.0 nM)","Yap1 mRNA, % UTC ([1]; 500.0 nM)","Yap1 mRNA, % UTC ([1]; 2000.00 nM)",IC50 [1],"YAP1 (% UTC) [2, 3]","YAP1 (% UTC) [2, 4]","YAP1 (% UTC) [2, 5]","YAP1 (% UTC) [2, 6]"
1074419 (kA*kT*kT*d[5mC]*dT*dT*dT*dA*dG*dA*dG*d[5mC]*d[5mC]*kA*kA*k[5mC]; antisense) [compound 1074419],48 % UTC,15 % UTC,5 % UTC,3 % UTC,< 20 nM,4 % UTC,–,–,–
1074609 (DNA k[5mC]*kT*kA*dG*dT*dT*dA*d[5mC]*dA*dT*d[5mC]*dA*dT*k[5mC]*kT*k[5mC]) [compound 1074609],65 % UTC,29 % UTC,15 % UTC,11 % UTC,100 nM,–,8 % UTC,–,–
1074675 (antisense kA*kA*kA*dT*dT*dA*dT*dA*dG*dG*d[5mC]*dA*d[5mC]*kT*k[5mC]*k[5mC]) [compound 1074675],47 % UTC,18 % UTC,6 % UTC,3 % UTC,< 20 nM,6 % UTC,–,–,–
1074480 (kT*k[5mC]*kA*dT*dT*dT*dG*d[5mC]*d[5mC]*dT*dA*dG*dG*kT*kT*k[5mC]; antisense) [compound 1074480],33 % UTC,9 % UTC,5 % UTC,3 % UTC,< 20 nM,–,–,3 % UTC,–
1076467 (kG*kT*kA*dT*dT*dT*dA*dG*dA*dG*d[5mC]*dT*dT*kA*kA*kG; antisense) [compound 1076467],24 % UTC,6 % UTC,3 % UTC,2 % UTC,< 20 nM,5 % UTC,–,–,–
1076464 (k[5mC]*kA*kT*dA*dT*dA*d[5mC]*dA*dA*dT*dT*d[5mC]*dT*kG*k[5mC]*k[5mC]; antisense) [compound 1076464],36 % UTC,10 % UTC,3 % UTC,2 % UTC,< 20 nM,–,–,2 % UTC,–
1074736 (kT*k[5mC]*kA*dG*dT*dA*d[5mC]*dA*dG*dA*dG*dG*dG*k[5mC]*kA*kT; antisense) [compound 1074736],34 % UTC,12 % UTC,7 % UTC,7 % UTC,< 20 nM,–,–,4 % UTC,–
1074448 (kT*kA*kA*dT*dG*dA*dT*dA*dG*d[5mC]*dA*d[5mC]*dT*kA*kG*kG; antisense) [compound 1074448],54 % UTC,13 % UTC,4 % UTC,3 % UTC,< 20 nM,–,–,3 % UTC,–
1074290 (antisense k[5mC]*kT*kG*dA*d[5mC]*dT*dG*dA*dT*dT*d[5mC]*dT*d[5mC]*kT*kG*kG) [compound 1074290],49 % UTC,17 % UTC,9 % UTC,7 % UTC,< 20 nM,–,–,–,5 % UTC
1074417 (kT*k[5mC]*kT*dT*dT*dA*dG*dA*dG*d[5mC]*d[5mC]*dA*dA*k[5mC]*kT*kG; antisense) [compound 1074417],68 % UTC,26 % UTC,7 % UTC,3 % UTC,100 nM,–,2 % UTC,–,–
1074576 (DNA kA*kT*kG*d[5mC]*dA*d[5mC]*dA*dT*dT*dA*dT*dG*dA*kA*k[5mC]*k[5mC]) [compound 1074576],69 % UTC,41 % UTC,14 % UTC,9 % UTC,100 nM,–,–,7 % UTC,–
1074451 (kG*kA*k[5mC]*dT*dA*dA*dT*dG*dA*dT*dA*dG*d[5mC]*kA*k[5mC]*kT; antisense) [compound 1074451],63 % UTC,26 % UTC,8 % UTC,4 % UTC,40 nM,6 % UTC,–,–,–
1076115 (k[5mC]*kA*kT*dT*dA*dG*dT*dA*dA*dG*d[5mC]*dT*dG*kA*kG*kG; antisense) [compound 1076115],47 % UTC,17 % UTC,9 % UTC,6 % UTC,< 20 nM,7 % UTC,–,–,–
1075155 (kT*k[5mC]*kA*dT*dT*dA*dT*dA*dA*dT*dG*dG*dG*kA*kG*kG; antisense) [compound 1075155],51 % UTC,15 % UTC,6 % UTC,4 % UTC,< 20 nM,5 % UTC,–,–,–
1074610 (DNA kT*k[5mC]*kT*dA*dG*dT*dT*dA*d[5mC]*dA*dT*d[5mC]*dA*kT*k[5mC]*kT) [compound 1074610],57 % UTC,20 % UTC,10 % UTC,7 % UTC,< 20 nM,–,–,–,5 % UTC
1074801 (kA*k[5mC]*kA*dA*dA*dT*dA*dG*dT*dG*d[5mC]*dT*dT*kT*kG*kG; antisense) [compound 1074801],76 % UTC,41 % UTC,19 % UTC,12 % UTC,100 nM,–,8 % UTC,–,–
1075089 (k[5mC]*kA*kT*dT*dT*dA*dT*dA*dG*dT*d[5mC]*dA*dG*kG*kT*kT; antisense) [compound 1075089],45 % UTC,9 % UTC,3 % UTC,3 % UTC,< 20 nM,–,2 % UTC,–,–
1076466 (kA*kT*kT*dT*dA*dG*dA*dG*d[5mC]*dT*dT*dA*dA*kG*kG*kA; antisense) [compound 1076466],43 % UTC,18 % UTC,8 % UTC,6 % UTC,< 20 nM,–,–,–,5 % UTC
1074608 (DNA kG*kT*kT*dA*d[5mC]*dA*dT*d[5mC]*dA*dT*d[5mC]*dT*d[5mC]*kT*kT*k[5mC]) [compound 1074608],49 % UTC,20 % UTC,9 % UTC,7 % UTC,< 20 nM,–,–,5 % UTC,–
1075792 (kG*kA*kT*dT*dA*dG*dA*dA*dA*dG*dT*dG*d[5mC]*k[5mC]*kT*kT; antisense) [compound 1075792],79 % UTC,41 % UTC,15 % UTC,10 % UTC,100 nM,–,–,6 % UTC,–
1076530 (kA*kG*kT*dA*dT*dA*dA*dA*dG*d[5mC]*dA*dG*dG*kG*k[5mC]*kA; antisense) [compound 1076530],53 % UTC,26 % UTC,11 % UTC,7 % UTC,< 20 nM,–,–,–,5 % UTC
1074577 (DNA kT*kA*kT*dT*dT*d[5mC]*dT*dG*dT*d[5mC]*dA*dT*dG*k[5mC]*kA*k[5mC]) [compound 1074577],33 % UTC,10 % UTC,4 % UTC,3 % UTC,< 20 nM,–,3 % UTC,–,–
1074450 (kA*k[5mC]*kT*dA*dA*dT*dG*dA*dT*dA*dG*d[5mC]*dA*k[5mC]*kT*kA; antisense) [compound 1074450],54 % UTC,22 % UTC,7 % UTC,5 % UTC,< 20 nM,–,–,–,5 % UTC
1076370 (antisense kG*kA*kT*dT*dA*dT*dT*d[5mC]*dG*dG*dT*dA*dT*kT*kT*kT) [compound 1076370],46 % UTC,12 % UTC,4 % UTC,2 % UTC,< 20 nM,–,–,–,2 % UTC
1076369 (antisense kT*kA*kT*dT*d[5mC]*dG*dG*dT*dA*dT*dT*dT*dT*k[5mC]*kT*kA) [compound 1076369],60 % UTC,20 % UTC,6 % UTC,3 % UTC,< 20 nM,–,2 % UTC,–,–
1074418 (kT*kT*k[5mC]*dT*dT*dT*dA*dG*dA*dG*d[5mC]*d[5mC]*dA*kA*k[5mC]*kT; antisense) [compound 1074418],55 % UTC,26 % UTC,9 % UTC,4 % UTC,< 20 nM,–,–,–,4 % UTC
